These results are taken from patent US20240269304A1, “BCL-XL INHIBITOR ANTIBODY-DRUG CONJUGATES AND METHODS OF USE THEREOF” (Novartis AG, priority 2020, published 2024).

One assay concerns SUDHL8 (DLBCL). The assay can be described thus: CellTiter-Glo viability 72 h, single agent or 1/1 combination, SUDHL8 (Example 9). It counts as cell-based. Particulars: Homo sapiens, SU-DHL-8, single agent or 1/1 combination as labelled. Here is the method: (§1) Cell lines were cultured in the media described above at 37° C. in a humidified atmosphere containing 5% CO2. Cells were seeded in 96 well clear bottom plates (96 well clear-bottom, white, Corning reference 3903) and exposed to the payloads or ADCs at single agents or in 1/1 combinations with vincristine, ABT-199 or compound A2 for 72 h (serially diluted; 9 concentrations each, triplicates). Effects of payloads or ADCs on cell viability were assessed after 3 days of incubation at 37° C./5% CO2 by quantification of cellular ATP levels using CellTiter-Glo reagent (Promega Ref: G7571) at 75 μL reagent/well. All the conditions were tested in triplicates. Luminescence was quantified on a multipurpose plate reader. IC50s were calculated using standard four-parametric curve fitting. […] Each experiment was performed at least twice, with results being reproducible.
On the technique in general: In ATP-based viability assays light output follows the ATP content of the culture.

In a further assay the test system is MM1S (MM). Nature of the assay: CellTiter-Glo viability 72 h, single agent or 1/1 combination, MM1S (Example 9). It counts as cell-based. Particulars: Homo sapiens, MM1.S, single agent or 1/1 combination as labelled. The protocol:
as §1

A further assay relates to ALL-SILL (T-ALL). The assay can be described thus: CellTiter-Glo viability 72 h, single agent or 1/1 combination, ALL-SIL (Example 9). It counts as cell-based. The settings on record: single agent or 1/1 combination as labelled. The protocol:
Cell lines were cultured in the media described above at 37° C. in a humidified atmosphere containing 5% CO2. […] Effects of payloads or ADCs on cell viability were assessed after 3 days of incubation at 37° C./5% CO2 by quantification of cellular ATP levels using CellTiter-Glo reagent (Promega Ref: G7571) at 75 μL reagent/well. All the conditions were tested in triplicates. Luminescence was quantified on a multipurpose plate reader. IC50s were calculated using standard four-parametric curve fitting.

Another assay has as its system HPB-ALL (T-ALL). Nature of the assay: CellTiter-Glo viability 72 h, single agent or 1/1 combination with vincristine, ABT-199 or Compound A2, HPB-ALL (Example 9). It is filed as cell-based. The settings on record: Homo sapiens, HPBALL, single agent or 1/1 combination as labelled. Here is the method: as §1
Another assay has as its system LOUCY (T-ALL). Nature of the assay: CellTiter-Glo viability 72 h, single agent or 1/1 combination, LOUCY (Example 9). It is filed as cell-based. The settings on record: single agent or 1/1 combination as labelled. Here is the method: as §1
For assay [1], the system named is H1650 human non-small cell lung carcinoma (NSCLC) model. The assay can be described thus: In vivo efficacy of EGFR1-Bcl-xL inhibitor ADCs with different linker payloads in combination with docetaxel, H1650 xenografts (Example 16). Also noted: species or system female SCID mice. Particulars: 7.5 mg/kg i.v. once + docetaxel 7.5 mg/kg iv 24 h later; for ΔTumor volume (mm^3) D21: mean±SEM. Here is the method: Tumor growth was monitored regularly post cell inoculation and animals were randomized into treatment groups (n=7) with a mean tumor volume of about 150 mm^3. […] The ADCs were administered intravenously (i.v.) once at the start of treatment at 7.5 mg/kg in combination with 7.5 mg/kg docetaxel (Zentiva: 1 ml/20 mg), which was administered i.v. once 24 h after the ADCs. Doses were adjusted to individual mouse body weights.
As a measure of efficacy, the %T/C value was calculated on day 21 according to:
(Δtumor volume treated/Δtumor volume control)*100 Tumor regression was calculated according to: […]
Where Δtumor volumes represent the mean tumor volume on the evaluation day minus the mean tumor volume at the start of the experiment.

The test system of the next assay is H1650 cells. The assay can be described thus: CellTiterGlo (CTG) cell viability, 3D, 120 h, H1650 (Example 8). It is filed as cell-based, human. The settings on record: Homo sapiens, NCI-H1650, H1650 3D.
[2] abbreviates: mean, read-out: SUDHL8 (DLBCL) IC50 mean.
The mark [3] stands for this setting: n1, read-out: SUDHL8 (DLBCL) IC50 n1.
Where [4] appears, read: n2, read-out: SUDHL8 (DLBCL) IC50 n2.
Where [5] appears, read: mean, read-out: MM1S (MM) IC50 mean.
Setting [6] is: n1, read-out: MM1S (MM) IC50 n1.
Setting [7] is: n2, read-out: MM1S (MM) IC50 n2.
The mark [8] stands for this setting: mean, read-out: ALL-SILL (T-ALL) IC50 mean.
[9] abbreviates: n1, read-out: ALL-SILL (T-ALL) IC50 n1.
[10] abbreviates: n2, read-out: ALL-SILL (T-ALL) IC50 n2.
The mark [11] stands for this setting: mean, read-out: HPB-ALL (T-ALL) IC50 mean.
The mark [12] stands for this setting: n1, read-out: HPB-ALL (T-ALL) IC50 n1.
[13] abbreviates: n2, read-out: HPB-ALL (T-ALL) IC50 n2.
The mark [14] stands for this setting: mean, read-out: LOUCY (T-ALL) IC50 mean.
Setting [15] is: n1, read-out: LOUCY (T-ALL) IC50 n1.
The mark [16] stands for this setting: n2, read-out: LOUCY (T-ALL) IC50 n2.

Where two headings read alike, the source gives them in different places.

On to `CC1(C)CCC(CN2CCN(c3ccc(C(=O)NS(=O)(=O)c4ccc(NCC5CCOCC5)c([N+](=O)[O-])c4)c(Oc4cnc5[nH]ccc5c4)c3)CC2)=C(c2ccc(Cl)cc2)C1` [ABT-199, reference compound], for which the half-inhibitory concentration (IC50) (usually the midpoint of a concentration-inhibition curve) in the assay with SUDHL8 (DLBCL) (setting [2]) is 6140 nM; in the assay with SUDHL8 (DLBCL) (setting [3]), 4820 nM; with SUDHL8 (DLBCL) (setting [4]) it was 7460 nM; in the assay with MM1S (MM) (setting [5]) it was 4540 nM; in the assay with MM1S (MM) (setting [6]), 4470 nM; with MM1S (MM) (setting [7]), 4600 nM. For the same compound, the IC50 is 224 nM with ALL-SILL (T-ALL) (setting [8]); 234 nM in the assay on ALL-SILL (T-ALL) (setting [9]); 213 nM in the assay on ALL-SILL (T-ALL) (setting [10]); 9060 nM with HPB-ALL (T-ALL) (setting [11]); 8920 nM with HPB-ALL (T-ALL) (setting [12]); 9210 nM in the assay on HPB-ALL (T-ALL) (setting [13]). Besides, the IC50 came to 24.5 nM in the assay on LOUCY (T-ALL) (setting [14]), 19 nM in the assay with LOUCY (T-ALL) (setting [15]) and 30 nM with LOUCY (T-ALL) (setting [16]).

As for `Cc1c(N(C(=O)c2cc(-c3cc(Cl)ccc3C(=O)N3Cc4ccccc4C[C@H]3CN3CCOCC3)n(C)c2C)c2ccc(O)cc2)cc(C#N)n1C` [Compound A2, reference compound], the half-maximal inhibitory concentration (IC50) in the assay on SUDHL8 (DLBCL) (setting [2]) stood at 5740 nM; in the assay on SUDHL8 (DLBCL) (setting [3]) it was 6670 nM; in the assay with SUDHL8 (DLBCL) (setting [4]), 4820 nM; with MM1S (MM) (setting [5]), 7360 nM; in the assay with MM1S (MM) (setting [6]), 7360 nM; with MM1S (MM) (setting [7]), 7360 nM. Moreover, the IC50 in the assay with ALL-SILL (T-ALL) (setting [8]) is 124 nM; with ALL-SILL (T-ALL) (setting [9]), 128 nM; with ALL-SILL (T-ALL) (setting [10]), 121 nM; in the assay with HPB-ALL (T-ALL) (setting [11]), 6080 nM; in the assay with HPB-ALL (T-ALL) (setting [12]) it was 5850 nM; in the assay on HPB-ALL (T-ALL) (setting [13]), 6300 nM. Moreover, the IC50 with LOUCY (T-ALL) (setting [14]) was 35.5 nM; in the assay with LOUCY (T-ALL) (setting [15]), 30 nM; in the assay on LOUCY (T-ALL) (setting [16]), 41 nM.

On to `Cc1c(Nc2nc3ccccc3s2)nnc2c1CCCN2c1ccc(-c2cnn(CC34CC5(C)CC(C)(C3)CC(OCC[N+]3(Cc6ccc(NC(=O)[C@H](CCCNC(N)=O)NC(=O)[C@@H](NC(=O)CCOCCN7C(=O)CC(C)C7=O)C(C)C)cc6CN(C)C(=O)CCOCCOCCOCCOCCOCCOCCOCCOCCOCCOCCOCCOCCOCCOCCOCCOCCOCCOCCOCCOCCOCCOCCOCCOCCOCCC(=O)O)CCCC3)(C5)C4)c2C)c(C(=O)O)n1` (stereo partly drawn) [EGFR1-L11A-P21], for which, in assay [1] (day 21), the “Regression (%)” value is on record as −8% and the “ΔTumor volume (mm^3) D21” value is reported as −16 ± 20 mm^3. For the same compound, in assay [1] (one way ANOVA post hoc Tukey), the “Statistics D21 vs Vehicle gp” value is on record as “P < 0.05” and the “Statistics D46 vs EGFR-L109A-P1” value is “P < 0.05”.

For `Cc1c(Nc2nc3ccccc3s2)nnc2c1CCCN2c1ccc(-c2cnn(CC34CC5(C)CC(C)(C3)CC(OCC[N+](C)(C)Cc3ccc(NC(=O)[C@H](CCCNC(N)=O)NC(=O)[C@@H](NC(=O)CCOCCN6C(=O)CC(C)C6=O)C(C)C)cc3CN(C)C(=O)CCOCCOCCOCCOCCOCCOCCOCCOCCOCCOCCOCCOCCOCCOCCOCCOCCOCCOCCOCCOCCOCCOCCOCCOCCOCCC(=O)O)(C5)C4)c2C)c(C(=O)O)n1` (stereo partly drawn) [EGFR1-L11A-P27], in assay [1] (day 21), the “T/C (%) D21” value was determined as 3% and the “ΔTumor volume (mm^3) D21” value was 14 ± 18 mm^3. For the same compound, the “Statistics D21 vs Vehicle gp” value in assay [1] (one way ANOVA post hoc Tukey) is “P < 0.05”.

As to `Cc1c(Nc2nc3ccccc3s2)nnc2c1CCCN2c1ccc(-c2cnn(CC34CC5(C)CC(C)(C3)CC(OCCN(CCCO)C(=O)OCc3ccc(NC(=O)[C@H](CCCNC(N)=O)NC(=O)[C@@H](NC(=O)CCOCCN6C(=O)CC(C)C6=O)C(C)C)cc3CN(C)C(=O)CCOCCOCCOCCOCCOCCOCCOCCOCCOCCOCCOCCOCCOCCOCCOCCOCCOCCOCCOCCOCCOCCOCCOCCOCCOCCC(=O)O)(C5)C4)c2C)c(C(=O)O)n1` (stereo partly drawn) [EGFR1-L11C-P25], in assay [1] (day 21), the “Regression (%)” value is −50% and the “ΔTumor volume (mm^3) D21” value is −76 ± 17 mm^3. Also, in assay [1] (one way ANOVA post hoc Tukey), the “Statistics 21 vs EGFR-L109A-P1” value is recorded as “P < 0.05”, the “Statistics D21 vs Vehicle gp” value is listed as “P < 0.05” and the “Statistics D46 vs EGFR-L109A-P1” value was “P < 0.05”.

Regarding `Cc1c(Nc2nc3ccccc3s2)nnc2c1CCCN2c1ccc(-c2cnn(CC34CC5(C)CC(C)(C3)CC(OCCNCCCO)(C5)C4)c2C)c(C(=O)O)n1` [P25, 6-[3-(1,3-benzothiazol-2-ylamino)-4-methyl-6,7-dihydro-5H-pyrido[2,3-c]pyridazin-8-yl]-3-[1-[[3-[2-(3-hydroxypropylamino)ethoxy]-5,7-dimethyl-1-adamantyl]methyl]-5-methyl-pyrazol-4-yl]pyridine-2-carboxylic acid], the IC50 came to 7.78 nM with SUDHL8 (DLBCL) (setting [2]); 5.92 nM in the assay with SUDHL8 (DLBCL) (setting [3]); 9.64 nM in the assay on SUDHL8 (DLBCL) (setting [4]); 74.8 nM in the assay with MM1S (MM) (setting [5]); 56.7 nM with MM1S (MM) (setting [6]); 92.9 nM in the assay with MM1S (MM) (setting [7]). In addition, the IC50 with ALL-SILL (T-ALL) (setting [8]) came to 1.75 nM; with ALL-SILL (T-ALL) (setting [9]), 2.1 nM; with ALL-SILL (T-ALL) (setting [10]), 1.39 nM; in the assay with HPB-ALL (T-ALL) (setting [11]), 4.6 nM; in the assay with HPB-ALL (T-ALL) (setting [12]), 4.2 nM; in the assay with HPB-ALL (T-ALL) (setting [13]), 5 nM. In addition, the IC50 in the assay on H1650 cells (experiment n1, read-out: H1650 3D CTG IC50 n1) was found to be 2.8 nM; with H1650 cells (experiment n2, read-out: H1650 3D CTG IC50 n2), 3 nM; in the assay on H1650 cells (mean of n1 and n2, read-out: H1650 3D CTG IC50 Mean of n1 and n2), 2.9 nM; in the assay on LOUCY (T-ALL) (setting [14]), 1.03 nM; in the assay on LOUCY (T-ALL) (setting [15]), 0.8 nM; with LOUCY (T-ALL) (setting [16]), 1.26 nM.

Regarding `CC[C@]1(O)C[C@H]2CN(CCc3c([nH]c4ccccc34)[C@@](C(=O)OC)(c3cc4c(cc3OC)N(C=O)[C@H]3[C@@](O)(C(=O)OC)[C@H](OC(C)=O)[C@]5(CC)C=CCN6CC[C@]43[C@@H]65)C2)C1` [Vincristine, vincristine], the IC50 in the assay with ALL-SILL (T-ALL) (setting [8]) was 0.089 nM; in the assay on ALL-SILL (T-ALL) (setting [9]), 0.094 nM; in the assay on ALL-SILL (T-ALL) (setting [10]), 0.083 nM; in the assay with HPB-ALL (T-ALL) (setting [11]) it was 0.705 nM; with HPB-ALL (T-ALL) (setting [12]) it was 0.68 nM; in the assay with HPB-ALL (T-ALL) (setting [13]) it was 0.73 nM. The IC50 turned out to be 0.73 nM with LOUCY (T-ALL) (setting [14]), 0.96 nM in the assay with LOUCY (T-ALL) (setting [15]) and 0.5 nM in the assay with LOUCY (T-ALL) (setting [16]).
